# Measured values from patent US12606552B2, “Bifunctional compound, preparation method therefor, and use thereof” (SUZHOU KINTOR PHARMACEUTICALS, INC., priority 2020, dated 2026).
# Molecular target: T1, AR (Homo sapiens, UniProt P10275, T878A)
# T1 sequence (P10275 1-920 T878A): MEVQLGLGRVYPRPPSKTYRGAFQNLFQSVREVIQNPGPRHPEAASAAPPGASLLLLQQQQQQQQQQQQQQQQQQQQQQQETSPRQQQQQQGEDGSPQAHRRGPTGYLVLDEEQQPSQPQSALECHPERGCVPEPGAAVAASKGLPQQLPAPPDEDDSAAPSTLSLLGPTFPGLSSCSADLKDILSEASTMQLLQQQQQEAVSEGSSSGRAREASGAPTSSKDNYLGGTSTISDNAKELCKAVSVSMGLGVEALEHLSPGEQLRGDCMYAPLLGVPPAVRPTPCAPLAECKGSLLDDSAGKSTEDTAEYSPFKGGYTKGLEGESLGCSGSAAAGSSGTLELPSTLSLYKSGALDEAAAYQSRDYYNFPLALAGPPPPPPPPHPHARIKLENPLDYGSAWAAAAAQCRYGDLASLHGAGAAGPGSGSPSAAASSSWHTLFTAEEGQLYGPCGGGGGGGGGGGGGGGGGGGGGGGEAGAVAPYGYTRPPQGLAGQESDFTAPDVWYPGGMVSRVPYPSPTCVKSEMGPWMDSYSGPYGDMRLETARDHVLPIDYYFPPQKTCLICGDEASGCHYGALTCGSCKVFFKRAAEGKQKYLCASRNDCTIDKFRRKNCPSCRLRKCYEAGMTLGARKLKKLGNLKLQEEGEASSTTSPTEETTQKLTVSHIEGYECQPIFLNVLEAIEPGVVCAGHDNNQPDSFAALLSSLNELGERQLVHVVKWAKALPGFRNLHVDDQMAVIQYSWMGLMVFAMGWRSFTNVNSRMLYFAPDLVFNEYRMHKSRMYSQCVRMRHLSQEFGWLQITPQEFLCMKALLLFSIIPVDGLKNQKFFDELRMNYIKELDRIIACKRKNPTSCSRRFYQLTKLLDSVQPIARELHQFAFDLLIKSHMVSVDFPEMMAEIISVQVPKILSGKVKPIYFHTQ
# Test: Effects of compounds on AR expression in LNCaP cells (ELISA, DC50)
# Type: cell-based
# Set-up: Measurement of the Effects of Drugs on the Expression of AR in Cells by ELISA Method; endogenous in cells; host or cells: LNCaP
# Conditions: 24 hours of drug treatment, AR by ELISA
# Experimental: Activity Assay Example 1: Effects of Compounds on AR Expression in LNCaP Cells
# 1. Cell Line and Cell Culture
# Human prostate cancer cells LNCaP (Shanghai Chinese Academy of Sciences Cell Bank). LNCaP was cultured in 1640 medium containing 10% fetal bovine serum. The cells grow in clusters, with weak adhesion to the bottom of the culture flask, slow proliferation, with a multiplication time of 72 h. The cells are closely adhered to each other and need to be digested with 0.05% trypsin containing 0.025% EDTA. The cells were passaged every 3 days. The cells were cultured at 37° C. and 5% CO2 in a humidified incubator
# 2. Cell plating: The supernatant was discarded, and the Lncap cells in the logarithmic growth phase were taken, washed with PBS once, and added with appropriate 0.05% trypsin digestion solution to be fully digested into single cell suspension, and centrifuged, resuspended and counted to make the number of cells about 15,000 per well, then inoculated in a 96-well plate, placed at 37° C., 5% CO2 and cultured overnight for 24 h.
# 3. Preparation and Addition of Compound Solutions
# About 2 mg of each compound was weighed and dissolved in DMSO to make the stock solution with a concentration of 10 mmol/L. Dilution process (final concentration dilution: 2, 0.667, 0.222, 0.074, 0.0245, 0.008, 0.003, 0.001, 0.0003, 0.0001 μmol/L): 10 centrifuge tubes with a volume of 1.5 mL were taken and numbered 1, 2, 3, 4, 5, 6, 7, 8, 9, and 10, 80 μL DMSO was added to tube No. 1, and 60 μL DMSO was added to tubes No. 2 to No. 10, 20 μL of the stock solution was pipetted to tube No. 1 and mixed well; 30 μL was pipetted from tube No. 1 into tube No. 2 and mixed well. 30 μL was pipetted from tube No. 2 into tube No. 3 and mixed well, and so forth, to obtain samples No. 4-10, and to obtain working solutions of compounds of different concentrations respectively. 2 μL was pipetted from the above-mentioned tubes No. 1-10 into each corresponding sterile deep-well plates, added with 198 μL of culture medium, and mixed well. 11 ul was added to each well of the 96-well cell plate cultured overnight to obtain the corresponding desired concentrations (2, 0.667, 0.222, 0.074, 0.0245, 0.008, 0.003, 0.001, 0.0003, 0.0001 μmol/L).
# 4. Measurement of the Effects of Drugs on the Expression of AR in Cells by ELISA Method
# After 24 hours of drug treatment, the supernatant was removed, and 200 μL of PBS was added to wash cells, and then the supernatant was removed, and 100 μL of cell lysate was added to lyse cells on ice for 20 min, then the cell lysate was centrifuged at 4000 rpm for 20 min at 4° C. and the supernatant was taken for later use. The measurement steps of the supernatant were according to the ELISA kit instructions:
# 4.1 The slats required for the test were taken out from the sealed bag that has been equilibrated to room temperature. Please put the unused slats and desiccant back into the aluminum foil bag and compress the self-sealing strip, seal the bag, and store at 4° C.
# 4.2 Standards and sample diluents were added to blank wells, and different concentrations of standards (10 ul/well) and sample diluents (90 ul/well) were added to the remaining corresponding wells, and the reaction wells were sealed with sealing tape, and refrigerated at 4° C. overnight.
# 4.3 Primary antibody was diluted with dilution buffer to the corresponding concentration and added to each well in 100 ul/well. The reaction wells were sealed with sealing tape and incubated at 37° C. for 60 min.
# 4.4 Secondary antibody was diluted with dilution buffer to the corresponding concentration and added to each well in 100 ul/well. The reaction wells were sealed with sealing tape and incubated at 37° C. for 30 min.
# 4.5 The reaction wells were added with 100 ul/well of substrate (TMB) and incubated at room temperature for 30 min.
# 4.6 The reaction wells were added with 100 ul/well of stop solution, mixed well and then the OD450 value was measured with a microplate reader. […]
row,SMILES,DC50
1,CC(C)(C)[C@H](NC(=O)COCCCCOc1ccc(-c2ncc(N3C(=S)N(c4ccc(C#N)c(C(F)(F)F)c4F)C(=O)C3(C)C)cc2F)cc1F)C(=O)N1C[C@H](O)C[C@H]1C(=O)NCc1ccccc1 [Compound A120],216 nM
2,CC(C)(C)[C@H](NC(=O)COCCCCOc1ccc(-c2ccc(N3C(=S)N(c4ccc(C#N)c(C(F)(F)F)c4F)C(=O)C3(C)C)cn2)cc1C(F)(F)F)C(=O)N1C[C@H](O)C[C@H]1C(=O)NCc1ccc(C(N)=O)cc1 [Compound A121],336 nM
3,CC(C)(C)[C@H](NC(=O)COCCCCOc1ccc(-c2ccc(N3C(=S)N(c4ccc(C#N)c(C(F)(F)F)c4F)C(=O)C3(C)C)cn2)cc1C(F)(F)F)C(=O)N1C[C@H](O)C[C@H]1C(=O)NCc1ccccc1 [Compound A122],155 nM
4,Cc1ncsc1-c1ccc(CNC(=O)[C@@H]2C[C@@H](O)CN2C(=O)[C@@H](NC(=O)CCCCCC#Cc2ncc(N3C(=S)N(c4ccc(C#N)c(C(F)(F)F)c4F)C(=O)C3(C)C)cc2F)C(C)(C)C)cc1 [Compound A125],> 2000 nM
5,CC(C)(C)[C@H](NC(=O)COCCCCOc1ccc(-c2ccc(N3C(=S)N(c4ccc(C#N)c(C(F)(F)F)c4F)C(=O)C3(C)C)cn2)cn1)C(=O)N1C[C@H](O)C[C@H]1C(=O)NCc1ccc(C(N)=O)cc1 [Compound A127],89.3 nM
6,CC(C)(C)[C@H](NC(=O)COCCCCOc1ccc(-c2ccc(N3C(=S)N(c4ccc(C#N)c(C(F)(F)F)c4F)C(=O)C3(C)C)cn2)cn1)C(=O)N1C[C@H](O)C[C@H]1C(=O)NCc1ccccc1 [Compound A128],124 nM
7,CC(C)(C)[C@H](NC(=O)COCCOc1ccc(-c2ncc(N3C(=S)N(c4ccc(C#N)c(C(F)(F)F)c4F)C(=O)C3(C)C)cc2F)cc1F)C(=O)N1C[C@H](O)C[C@H]1C(=O)NCc1ccc(C(N)=O)cc1 [Compound A129],67.9 nM
8,CC(C)(C)[C@H](NC(=O)COCCOc1ccc(-c2ncc(N3C(=S)N(c4ccc(C#N)c(C(F)(F)F)c4F)C(=O)C3(C)C)cc2F)cc1F)C(=O)N1C[C@H](O)C[C@H]1C(=O)NCc1ccccc1 [Compound A130],131 nM
9,CC(C)(C)[C@H](NC(=O)COCCCCOc1ccc(-c2ncc(N3C(=S)N(c4ccc(C#N)c(C(F)(F)F)c4F)C(=O)C3(C)C)cc2F)c(C(F)(F)F)c1)C(=O)N1C[C@H](O)C[C@H]1C(=O)NCc1ccc(C(N)=O)cc1 [Compound A131],34.8 nM
10,CC(C)(C)[C@H](NC(=O)COCCCCOc1ccc(-c2ncc(N3C(=S)N(c4ccc(C#N)c(C(F)(F)F)c4F)C(=O)C3(C)C)cc2F)c(C(F)(F)F)c1)C(=O)N1C[C@H](O)C[C@H]1C(=O)NCc1ccccc1 [Compound A132],161 nM
11,Cc1ncsc1-c1ccc(CNC(=O)[C@@H]2C[C@@H](O)CN2C(=O)[C@@H](NC(=O)COCCCCN2CC=C(c3ccc(N4C(=S)N(c5ccc(C#N)c(C(F)(F)F)c5F)C(=O)C4(C)C)cn3)CC2)C(C)(C)C)cc1 [Compound A135],1540 nM
12,Cc1ncsc1-c1ccc(CNC(=O)[C@@H]2C[C@@H](O)CN2C(=O)[C@@H](NC(=O)[C@H]2CC[C@H](CNC(=O)CCCc3ccc(N4C(=S)N(c5ccc(C#N)c(C(F)(F)F)c5F)C(=O)C4(C)C)cn3)CC2)C(C)(C)C)cc1 [Compound A140],1500 nM
13,Cc1ncsc1-c1ccc(CNC(=O)[C@@H]2C[C@@H](O)CN2C(=O)[C@@H](NC(=O)COCCCCN2CCC(c3ccc(N4C(=S)N(c5ccc(C#N)c(C(F)(F)F)c5F)C(=O)C4(C)C)cn3)CC2)C(C)(C)C)cc1 [Compound A141],> 2000 nM
14,Cc1ncsc1-c1ccc(CNC(=O)[C@@H]2C[C@@H](O)CN2C(=O)[C@@H]2CCCN2C(=O)COCCCCOc2ccc(-c3ncc(N4C(=S)N(c5ccc(C#N)c(C(F)(F)F)c5F)C(=O)C4(C)C)cc3F)cc2F)cc1 [Compound A142],> 2000 nM
15,Cc1ncsc1-c1ccc([C@H](C)NC(=O)[C@@H]2C[C@@H](O)CN2C(=O)[C@@H](NC(=O)COCC(F)C(F)COc2c(F)cc(-c3ncc(N4C(=S)N(c5ccc(C#N)c(C(F)(F)F)c5F)C(=O)C4(C)C)cc3F)cc2F)C(C)(C)C)cc1 (stereo partly drawn) [Compound A144],635 nM
